Reference: US20250295790A1, “LECTIN-TARGETING CONJUGATES” (Helmholtz-Zentrum für Infektionsforschung GmbH, priority 2021, published 2025)
“Also recorded” adds a separate entry of the source.

How the values were obtained:
A549 cells = test: Cell accumulation assay; assay type: cell-based, human; conditions: for intracellular drug levels: 15 min after incubation
Experimental: A549 cells were seed into 96-well-plates as described for the cytotoxicity assay. Cells were cultivated at 37° C. and 5% CO2 until they reached 95% confluency. Cells were treated with 2, 36 or 37 at a final concentration of 10 µg/ml or left untreated. Each condition was assayed in technical dupli-cates with two biological replicates. Cells were treated for 15 min, 30 min and 60 min. After incubation for the respective time point, cells were washed twice with pre-warmed PBS and were then lysed in MeOH and scratched from the surface. Supernatants from medium, wash fluids as well as the cell extracts were subjected to mass spectrometric analysis. For wash fluid and medium samples, calibration and QC samples were prepared using PBS as matrix and spiking the respective compounds into the matrix. For cell extract samples, calibration and QC samples were prepared using MeOH as matrix. For calibration and QC samples compounds were dispensed using a Mantis(R) Formulatrix. […] Supernatants were transferred to a Greiner V-bottom plate, sealed and subjected for HPLC-MS/MS analysis.
(§1) Cell samples as well as plasma stability, plasma protein binding and metabolic stability samples were analysed using an Agilent 1290 Infinity II coupled to an AB Sciex 6500plus mass spec-trometer. LC conditions were as follows: column: Agilent Zorbax Eclipse Plus C18, 50×2.1 mm, 1.8 m; temperature: 30° C.; injection volume: 5 l per sample; flow rate: 700 l/min. Solvents: A: water+0.1% formic acid; solvent B: 95% acetonitrile/5% H2O+0.1% formic acid. Gradient for 2, 36 and 37: 99% A from 0 min until 1 min; 99-0% A from 1.0 until 2.2 min, 0% A until 3.2 min. Gradient for naproxene: 99% A from 0 min until 1 min; 99-0% A from 1.0 until 5.5 min, 0% A until 6.0 min. Gradient for […] and […]: 99% A from 0 min until 1.0 min, 99-0% A from 1.0 until 3.5 min, 0% A until 3.7 min. Mass transitions for controls and compounds are depicted in table 5.

[1] = Stability of conjugates in human blood plasma spiked with LB; assay type: in vitro ADME; conditions: 50% human blood plasma spiked with 10% LB, within three hours
Experimental: (§2) A 1 mM solution of the studied compound was prepared in PBS (150 mM NaCl, 2.6 mM KCl, 1.4 mM KH2PO4, 10 mM Na2HPO4, pH 7.4) with 20% DMSO. 50 μL of this solution was diluted in 950 μL matrix or human plasma (spiked with 10% LB) on ice. After brief vortex, 100 μL were immediately treated with 100 μL ice-cold MeCN (spiked with […] diphenhydramine as internal standard). The rest of the solution was incubated at 37° C. and 500 rpm in an eppendorf thermomixer. At various time points (30, 60, 120, 180 min), 100 L sample were taken and treated as described above. […] The AUC of the parent drug and its cleavage products and the internal standard was quantified using Compass QuantAnalysis quantification software. The relative AUC was calculated by AUC (compound)/AUC(ISTD). Procaine was used as a positive control as it readily degrades in human plasma.

P. aeruginosa PA14 = test: Antibiotic susceptibility (MIC assay, broth microdilution); assay type: cell-based, Pseudomonas aeruginosa PA14
Experimental: Bacterial strains were streaked on LB-agar plates (1% agar) from glycerol stocks and incubated at 37° C. overnight. Colonies were picked from plate and dispersed in fresh MiGler-Hinton broth II (MHB II) to yield an OD600 of 0.08-0.13. This dispersion was diluted 1:100 in fresh MHB II, which was then used for the assay to achieve a final inoculum of 5×10^5 CFU/mL. 50 μL inoculum was mixed with 50 μL of the serial dilution in the corresponding well of the 96-well plate.
The different matrices were prepared under sterile conditions: (i) 5 mL human plasma and 1 mL sterile filtrate from an P. aeruginosa PA14 overnight culture in LB were mixed with 4 mL PBS; (ii) 1 mL sterile filtrate from an P. aeruginosa PA14 overnight culture was diluted in 9 mL PBS; (iii) PBS only and (iv) 5 mL human plasma and 1 mL LB were mixed with 4 mL PBS. 6 L of each compound dilution series was diluted in 115 L matrix (˜-1:20 dilution) in a 96-well format at time point T=−3 h or T=−10 min.
The plates prepared at T=−3 h were sealed with gas-permeable foil and incubated at 37° C. in a humid incubator. The other plates were kept at room temperature. At T=0 h, 50 µL of each well was mixed with 50 μL incoculum (as described above) in double-concentrated MHBII in a sterile 96-well plate.
The plates were sealed with gas-permeable foil and incubated at 37° C. for 18-20 h in a humid incubator. Growth inhibition was assessed by visual inspection and given MIC values are the lowest concentration of antibiotic at which there was no visible growth.

[2] = Prodrug activation assay in human blood plasma spiked with P. aeruginosa PA14 culture supernatant; assay type: in vitro ADME, Pseudomonas aeruginosa PA14; conditions: 50% human blood plasma spiked with 10% P. aeruginosa culture supernatant, within 3 h
Experimental: In the prodrug activation assay, the bacterial strain Pseudomonas aeruginosa PA14 wt (DSM 19882) was used. The strain was obtained from the German Collection of Microorganisms and Cell Cultures (DSMZ).
P. aeruginosa PA14 was streaked on LB-agar plates (1% agar) from glycerol stocks and incubated at 37° C. overnight. 2-5 colonies were picked and dispersed in 10 mL LB (10 g/L trypton, 10 g/L NaCl, 5 g/L yeast extracts). This dispersion was incubated overnight at 37° C., 180 rpm under high humidity. The culture was centrifuged (4000 ref, room temperature, 10 min) and the supernatant was filtered (0.22 m pore size). […]
as §2

[3] = Microsomal stability assay, mouse S9 liver microsomes; assay type: in vitro ADME; conditions: for CLmic S9mouse: microsomal clearance, calculated from t1/2; for metabolic stability t1/2 MLM: mouse S9 liver fractions
Experimental: S9 liver microsomes (mouse and human, Thermo Fisher) were thawed slowly on ice. 20 mg/ml of microsomes, 2 μl of a 100 μM solution of every compound and 183 μl of 100 mM phosphate buffer were incubated 5 min at 37° C. in a water bath. Reactions were initiated using 10 μl of 20 mM NADPH (Roth). Samples were incubated in three replicates at 37° C. under gentle agitation at 150 rpm.
At 0, 5, 15, 30, and 60 min, reactions were terminated by the addition of 180 μl acetonitrile using a Mantis Formulatrix® dispenser. Samples were vortexed for 5 min using an Eppendorf MixMate® vortex mixer and centrifuged at 2270 ref for 20 min at 4° C. The supernatants were transferred to 96-well Greiner V-bottom plates, sealed and analysed according to the section HPLC-MS/MS analysis. Peak areas of the respective time point of the compounds were normalized to the peak area at time point 0 min. Then half-life was calculated using linear regression (Microsoft Excel®). Clint [μl/min/mg protein] was calculated using the following formula: […]
as §1

[4] = Matrix 1: PBS, pre-incubation 3 h
[5] = Matrix 1: PBS, pre-incubation <10 min
[6] = Matrix 2: 50% human blood plasma + 10% P. aeruginosa culture supernatant in PBS, pre-incubation 3 h
[7] = Matrix 2: 50% human blood plasma + 10% P. aeruginosa culture supernatant in PBS, pre-incubation <10 min
[8] = Matrix 3: 10% P. aeruginosa culture supernatant in PBS, pre-incubation 3 h
[9] = Matrix 3: 10% P. aeruginosa culture supernatant in PBS, pre-incubation <10 min
[10] = Matrix 4: 50% human blood plasma + 10% LB in PBS, pre-incubation 3 h
[11] = Matrix 4: 50% human blood plasma + 10% LB in PBS, pre-incubation <10 min

SMILES	intracellular cleavage to compound 2 (A549 cells)	intracellular drug levels (A549 cells)	release of antibiotic cargo [1]	MIC (P. aeruginosa PA14; [4]) [µM]	MIC (P. aeruginosa PA14; [5]) [µM]	MIC (P. aeruginosa PA14; [6]) [µM]	MIC (P. aeruginosa PA14; [7]) [µM]	MIC (P. aeruginosa PA14; [8]) [µM]	MIC (P. aeruginosa PA14; [9]) [µM]	MIC (P. aeruginosa PA14; [10]) [µM]	MIC (P. aeruginosa PA14; [11]) [µM]	release of antibiotic cargo [2]	CLmic S9mouse [3] [μL/min/mg protein]	metabolic stability t1/2 MLM [3] [h]	intracellular concentration (A549 cells; 10 μg/ml, after 30 and 60 min) [µg/mL]
CC(C)CC(NC(=O)CNC(=O)C(C)NC(=O)c1ccc(S(=O)(=O)NCC2OC(C)C(O)C(O)C2O)cc1)C(=O)NC(C)C(=O)NC1CCN(c2cc3c(cc2F)c(=O)c(C(=O)O)cn3C2CC2)C1 (centres unmarked) [Compound 37]	not the case	very low intracellular drug levels	no significant release of their antibiotic cargo	>25	>25	0.1 to 0.195	0.78 to 1.56	0.39 to 3.13	1.56 to 12.5	0.78 to 6.25	≥25	release their antibiotic cargo; also recorded: released a significant amount of their antibiotic cargo; also recorded: efficiently released their antibiotic cargo	6.4	3.6	–
CC(C)C[C@H](NC(=O)CNC(=O)[C@H](C)NC(=O)c1ccc(S[C@@H]2O[C@H](CO)[C@H](O)[C@H](O)[C@H]2O)cc1)C(=O)N[C@@H](C)C(=O)N[C@H]1CCN(c2cc3c(cc2F)c(=O)c(C(=O)O)cn3C2CC2)C1 [Compound 36]	not the case	very low intracellular drug levels	no significant release of their antibiotic cargo	>25	>25	0.1	0.195 to 0.39	0.195 to 3.13	0.78 to 3.13	0.78 to 6.25	≥25	release their antibiotic cargo; also recorded: released a significant amount of their antibiotic cargo; also recorded: efficiently released their antibiotic cargo	14	1.67	0.013 to 0.016
